Laboratory results as given in patent US20090186853A1, “COMPOSITIONS COMPRISING N-PROPANOYL DERIVATIVES OF AMINO ACIDS, AMINOCARBOHYDRATES AND DERIVATIVES THEREOF” (priority 2005, published 2009).

What was measured:
[1] = tested on: fine wrinkles (crow's feet); assay: Topical treatment of fine wrinkles (crow's feet) near the eyes; format: in vivo, human; conditions: 5% cream of Example 7, topical twice daily, five weeks, person
Protocol: For subjective disorders such as pain, itch, or the like, the therapeutic effects were evaluated or judged by the subjects or patients. For example, the subjects evaluated whether the pain or itch had disappeared within hours or days. For other detectable symptoms or syndromes, the therapeutic effects or improvements were evaluated or judged by medical professionals. A subject, applied topically twice daily 5% N-propanoyl-D-glucosamine cream as formulated in Example 7 to fine wrinkles (crow's feet) near the eyes for five weeks.

[2] = tested on: forearm skin (aging / photoaging skin); assay: Forearm skin thickness measured by micrometer calipers after topical application; format: in vivo, human; conditions: 10% solution twice daily; for appearance of treated forearm skin compared with untreated forearm: at end of treatment (6 to 9 weeks)
Protocol: Skin thickness was measured by micrometer calipers to study skin changes associated with aging as follows: The skin was grasped with a 2×6 cm metal hinge, the internal faces of that were coated with emery cloth to prevent slippage, and manually squeezed to threshold subject discomfort. Combined thickness of two whole-skin layers including thickness of the two hinge leaves was measured with micrometer calipers. Thickness of the two hinge leaves was subtracted to determine the actual thickness of two whole-skin layers. Triplicate measurements on treated sites were done and an average number was used for calculation of the skin thickness. N-Propanoyl-D-glucosamine 10 g was dissolved in 90 ml solution prepared from water 40 parts, ethanol 40 parts and propylene glycol 20 parts by volume. The formulation thus prepared had pH 6.0 and contained 10% N-propanoyl-D-glucosamine solution.

[3] = tested on: itchy lesion due to atopic eczema; assay: Topical treatment of itch from atopic eczema in a human subject; format: in vivo; conditions: 5% cream
Protocol: For subjective disorders such as pain, itch, or the like, the therapeutic effects were evaluated or judged by the subjects or patients. For example, the subjects evaluated whether the pain or itch had disappeared within hours or days. For other detectable symptoms or syndromes, the therapeutic effects or improvements were evaluated or judged by medical professionals. N-Propanoyl-D-glucosamine 5 g was dissolved in water 15 ml and propylene glycol 5 ml, and the solution thus obtained was mixed uniformly with hydrophilic ointment or oil-in-water emulsion 75 g. The cream thus formulated had pH 4.7 and contained 5% N-propanoyl-D-glucosamine. A subject, having an itchy lesion on their right foot due to atopic eczema, topically applied the above cream to the lesion. […] A human subject having itchy skin from atopic eczema topically applied 5% N-propanoyl-glucosamine cream to the lesion.

CCC(=O)N[C@H]1C(O)O[C@H](CO)[C@@H](O)[C@@H]1O (stereo partly drawn) [N-propanoyl-D-glucosamine, N-Propanoyl-D-glucosamine]
change of wrinkles [1]: wrinkles improved significantly
appearance of treated forearm skin compared with untreated forearm [2]: firmer, smooth, plump and minimally wrinkled when lifted
appearance of treated forearm skin compared with untreated forearm ([2]; listed as N-propanoyl-glucosamine): firmer, smooth, plump, minimally wrinkled when lifted
increase in skin thickness ([2]; left forearm, person, after 4 weeks): 8%
increase in skin thickness ([2]; left forearm, person, after 5 weeks): 19%
increase in skin thickness ([2]; left forearm, person, after 6 weeks): 23%
increase in skin thickness ([2]; left forearm, person, after 8 weeks): 33%
increase in skin thickness ([2]; left forearm, person, after 9 weeks): 28%
increase in skin thickness ([2]; left forearm, subject with photoaging skin, 8 weeks): 33%
increase in skin thickness ([2]; right forearm, person, after 4 weeks): 13%
increase in skin thickness ([2]; right forearm, person, after 6 weeks): 27%
time skin remained free of itch ([3]; single topical application to atopic eczema lesion): 12 h
itch after topical application ([3]; topical to atopic eczema lesion, a few minutes after application): the itch disappeared completely
